Test results reported in PubChem BioAssay (NCI).
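Interpolation was linear, between the two tested concentrations surrounding the appropriate level; five concentrations were tested over 48 hours in 96-well plates. GI50 = concentration required for 50% inhibition of growth. TGI: concentration producing complete growth inhibition.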

Assays:
Assay in all cases: NCI-60 cell line screen, 48 h
[1] = test system: SNB-78 CNS
[2] = test system: UACC-257 melanoma
[3] = test system: OVCAR-5 ovarian
[4] = test system: HT29 colon
[5] = test system: DMS 273 small cell lung
[6] = test system: UACC-62 melanoma
[7] = test system: RXF 393 renal
[8] = test system: NCI/ADR-RES ovarian
[9] = test system: PC-3 prostate
[10] = test system: NCI-H226 lung

Compound | TGI [1] [µM] | TGI [2] [µM] | TGI [3] [µM] | TGI [4] [µM] | TGI [5] [µM] | TGI [6] [µM] | TGI [7] [µM] | GI50 [8] [µM] | TGI [8] [µM] | TGI [9] [µM] | GI50 [10] [µM] | TGI [10] [µM] | GI50 [2] [µM] | GI50 [3] [µM] | GI50 [4] [µM] | GI50 [6] [µM] | GI50 [9] [µM] | GI50 [7] [µM]
CC1CCC(C(C)C)C(O[C@@H]2OC(=O)C[C@@H]2Sc2ccccc2)C1 (some centres undefined) | 73.1 | 39.3 | 65.5 | 34.3 | 36.7 | > 100 | 31.9 |  |  |  |  |  |  |  |  |  |  | 
CC(C)(C#N)c1cc(C(=O)Nc2cc(Nc3ncccc3-c3ncnc4nc[nH]c34)ccc2F)cc(C(F)(F)F)c1 |  | > 3.21 | > 2.86 |  |  | 0.788 | > 2.89 | 1.62 | > 10 | > 4.27 | 0.289 | > 6.4 | 0.112 | 0.224 | 0.132 | 0.0871 |  | 
CC(C)N1C(NNC(=O)c2cnccn2)=NS(=O)(=O)c2ccccc21 |  | > 100 | > 100 | > 100 |  | > 100 | > 100 | > 100 | > 100 | > 100 | > 100 | > 100 | > 100 | > 100 | > 100 | > 100 | > 100 | > 100
Cc1ccc2c(c1)C(=O)c1c-2n(CCCBr)c(=O)c2cc([N+](=O)[O-])ccc12 |  | > 100 | > 100 | > 100 |  | > 100 | > 100 | 54.7 | > 100 | > 100 | 96.9 | > 100 | > 100 | > 100 | 62.8 | 26.1 | 17.4 | > 100
CSC1(SC2=NCCN2)SC2(NCCN2)S1 |  | 46.6 | 39.6 | 38.3 |  | 32.7 | 20.4 |  | > 91.6 | 34.3 |  | 56.7 |  |  |  |  |  | 
Nc1cc(N)c2nc(-c3ccccc3)c(NCc3ccc(F)cc3)nc2c1 |  | 4.26 | 7.61 | 12.5 |  | 29.5 | 27.2 | 2.46 | 5.76 | 15.6 | 22.4 | 47.7 | 2.02 | 2.62 | 3.19 | 15.4 | 3.5 | 12.3
CC(=O)NC1CC2Oc3ccc(C)cc3C(C)(O2)C1O (centres undefined) |  | > 100 |  | > 100 | > 100 | > 100 | > 100 |  |  |  |  | > 100 |  |  |  |  |  | 
Nc1n[nH]c2ccc([C@@H]3Nc4ccc5[nH]ncc5c4[C@H]4C5C=CC(C5)[C@@H]34)cc12 (some centres undefined) |  | 58.5 | 30.3 | 28.7 |  | 18.5 | 0.599 | 0.298 | 2.28 | 22.7 | 0.636 | 10.6 | 12.5 | 0.586 | 0.357 | 0.213 | 0.407 | 0.11
CCN(CC)c1ccc(C(=N)c2ccc(N(C)C)cc2)cc1 |  | 5.11 | 6.78 | 4.02 |  | 7.03 | 4.02 | 0.187 | 2.94 | 7.05 | 1.5 | 5.46 | 1.36 | 2.04 | 0.0399 | 1.35 | 0.284 | 1.18
Clc1nc(Cl)c(-c2ccccc2)c(Cl)n1 |  | 7.65 | 9.88 | 49.3 |  | 10.7 | 5.58 |  | 11 | 16.5 |  | 5.76 |  |  |  |  |  | 
COC(=O)c1cc(-c2cccn2C)c2c(c1C(=O)OC)c1ccccc1n2C | > 100 | > 100 |  | > 100 | > 100 | > 100 | > 100 |  |  |  |  |  |  |  |  |  |  | 
CN(C)CC1CCCCCC(CN(C)C)C1=O (centres undefined) |  | 4.6 | 22 | 2.78 |  | 22.9 | 3.35 | 3.39 | 14.3 | 24.2 | 9.98 | 33.3 | 1.77 | 8.29 | 1.35 | 8.12 | 8.71 | 1.58
c1ccc(P(CCP(CCP(c2ccccc2)c2ccccc2)c2ccccc2)CCP(c2ccccc2)c2ccccc2)cc1 (centres undefined) |  | > 10 | > 10 | > 10 |  | > 10 | > 10 |  | > 10 | > 10 |  | > 10 |  |  |  |  | > 10 | 
O=C(CCCSc1nc(-c2ccccc2)cc(-c2ccc(Cl)cc2)n1)NO |  | 12.4 | 8.48 | 13.2 |  | 3.89 | 2.55 | 0.351 | 2.58 | 12.3 | 3.12 | 17.1 | 2.92 | 2.12 | 2.47 | 1.45 | 2.19 | 0.445
O=c1cc(N=Nc2ccc(O)cc2)[nH]c(=O)[nH]1 |  | > 100 | > 100 | > 100 |  | > 100 | > 100 |  | > 100 | > 100 |  | > 100 |  |  |  |  |  | 
COc1ccc2c(c1)C(C)Cc1c(Cl)nc(C)nc1N2C (centres undefined) |  | 37.8 | > 100 | 8.92 |  | 36.2 | 20.8 | 1.7 | 16.7 | > 100 | 5.83 | 40.3 | 13.1 | 5.91 | 2.2 | 0.665 | 2.99 | 2.78
COc1cc2c3c(n(C)c(=O)c2cc1OC)-c1cc2c(cc1/C3=C\C(N)CN)OCO2 (centres undefined) |  | 41.4 | > 30.9 | > 100 |  | 3.66 | 3.38 | > 74.8 | > 100 | 20.5 | 1.89 | > 22.4 | 6.38 | 4.43 | 2.61 | 0.707 | 5.27 | 0.666
